pIC50: −log10 of the molar value. Structures can show the parent of a compound that is named as a salt.
Key:
[1] = target: PI3Kγ (p110γ) Recombinant Human Protein (Homo sapiens (Human), UniProt P48736); experiment: PI3K-γ Scintillation Proximity Assay; type: biochemical; details: 20 μM PIP2, 2 μM ATP, 13 nM PI3Kγ, 120 min, room temperature
Summary of the method: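 Recombinant human p110γ (13 nM) phosphorylated 20 μM PIP2 with 2 μM ATP plus [γ-33P]ATP in 20 mM MOPS pH 6.7, 10 mM MgCl2, 5 mM DTT, 0.03% CHAPS, 2% DMSO, 120 min at room temperature. Radiolabelled product was captured on WGA SPA beads and counted. IC50 came from curves of percent solvent-control activity.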

[2] = test system: Phosphorylated Ribosomal Protein S6 (RPS6) in THP-1 cells; experiment: THP-1 RPS6 ELISA Assay; type: cell-based; details: Homo sapiens; serum starved THP-1 cells, 2 hours with compound, 10 nM MCP-1 for 15 minutes, Phospho-RPS6 ELISA; read-out: PI3Kγ_THP1_RPS6_ELISA IC50
Summary of the method: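 Phospho-RPS6 in lysates measured by ELISA at 450 nm, corrected at 540 nm, after MCP-1 challenge (10 nM, 15 min) of THP-1 cells that were starved overnight and exposed to test compound for 2 h at 37° C, 2×10^5 cells/well. Curve fit of percent inhibition gives IC50.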

[3] = target: PI3Kδ (p110δ/p85α) Recombinant Human Protein (Homo sapiens (Human), UniProt O00329); experiment: PI3Kδ Scintillation Proximity Assay; type: biochemical; details: 20 μM PIP2, 2 μM ATP, 3.4 nM PI3Kδ, 120 min, room temperature
Summary of the method: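 Radiometric read-out: 33P-labelled PIP3 product captured on WGA SPA beads and counted, with IC50 fitted from percent activity relative to DMSO control. Enzyme (3.4 nM) was incubated 120 min at room temperature with 20 μM PIP2 and 2 μM ATP at pH 6.7, 2% DMSO.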

PI3Kγ (p110γ) Recombinant Human Protein, sequence (P48736 whole entry): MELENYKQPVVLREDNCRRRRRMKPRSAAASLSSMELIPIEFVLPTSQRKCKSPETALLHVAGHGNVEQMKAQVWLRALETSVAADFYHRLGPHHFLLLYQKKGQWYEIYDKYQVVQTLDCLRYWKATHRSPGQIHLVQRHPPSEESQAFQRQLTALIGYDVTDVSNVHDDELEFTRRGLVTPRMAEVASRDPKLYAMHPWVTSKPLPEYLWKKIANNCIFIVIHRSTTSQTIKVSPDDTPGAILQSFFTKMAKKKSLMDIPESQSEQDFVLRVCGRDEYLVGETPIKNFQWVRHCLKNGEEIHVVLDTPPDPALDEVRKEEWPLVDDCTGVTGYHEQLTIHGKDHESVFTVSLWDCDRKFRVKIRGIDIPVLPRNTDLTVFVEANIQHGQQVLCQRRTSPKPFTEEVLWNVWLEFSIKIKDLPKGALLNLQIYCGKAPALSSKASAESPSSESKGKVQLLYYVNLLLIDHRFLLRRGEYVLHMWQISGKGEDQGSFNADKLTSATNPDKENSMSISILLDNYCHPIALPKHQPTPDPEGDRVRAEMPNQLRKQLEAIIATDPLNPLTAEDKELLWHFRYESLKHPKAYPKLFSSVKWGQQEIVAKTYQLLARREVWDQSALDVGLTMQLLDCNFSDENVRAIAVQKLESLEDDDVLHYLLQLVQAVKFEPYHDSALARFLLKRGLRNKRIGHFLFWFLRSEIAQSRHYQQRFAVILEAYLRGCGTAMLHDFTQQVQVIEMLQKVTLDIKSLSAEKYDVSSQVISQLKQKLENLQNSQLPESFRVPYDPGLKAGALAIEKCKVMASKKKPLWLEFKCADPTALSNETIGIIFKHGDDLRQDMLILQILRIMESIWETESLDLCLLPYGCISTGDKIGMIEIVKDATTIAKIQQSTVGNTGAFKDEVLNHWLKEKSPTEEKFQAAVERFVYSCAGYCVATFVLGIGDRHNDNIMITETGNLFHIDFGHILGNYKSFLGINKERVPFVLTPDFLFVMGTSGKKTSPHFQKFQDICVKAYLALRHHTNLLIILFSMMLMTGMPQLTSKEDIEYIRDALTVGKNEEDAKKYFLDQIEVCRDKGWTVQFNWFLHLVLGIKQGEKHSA
PI3Kδ (p110δ/p85α) Recombinant Human Protein, sequence (O00329 whole entry): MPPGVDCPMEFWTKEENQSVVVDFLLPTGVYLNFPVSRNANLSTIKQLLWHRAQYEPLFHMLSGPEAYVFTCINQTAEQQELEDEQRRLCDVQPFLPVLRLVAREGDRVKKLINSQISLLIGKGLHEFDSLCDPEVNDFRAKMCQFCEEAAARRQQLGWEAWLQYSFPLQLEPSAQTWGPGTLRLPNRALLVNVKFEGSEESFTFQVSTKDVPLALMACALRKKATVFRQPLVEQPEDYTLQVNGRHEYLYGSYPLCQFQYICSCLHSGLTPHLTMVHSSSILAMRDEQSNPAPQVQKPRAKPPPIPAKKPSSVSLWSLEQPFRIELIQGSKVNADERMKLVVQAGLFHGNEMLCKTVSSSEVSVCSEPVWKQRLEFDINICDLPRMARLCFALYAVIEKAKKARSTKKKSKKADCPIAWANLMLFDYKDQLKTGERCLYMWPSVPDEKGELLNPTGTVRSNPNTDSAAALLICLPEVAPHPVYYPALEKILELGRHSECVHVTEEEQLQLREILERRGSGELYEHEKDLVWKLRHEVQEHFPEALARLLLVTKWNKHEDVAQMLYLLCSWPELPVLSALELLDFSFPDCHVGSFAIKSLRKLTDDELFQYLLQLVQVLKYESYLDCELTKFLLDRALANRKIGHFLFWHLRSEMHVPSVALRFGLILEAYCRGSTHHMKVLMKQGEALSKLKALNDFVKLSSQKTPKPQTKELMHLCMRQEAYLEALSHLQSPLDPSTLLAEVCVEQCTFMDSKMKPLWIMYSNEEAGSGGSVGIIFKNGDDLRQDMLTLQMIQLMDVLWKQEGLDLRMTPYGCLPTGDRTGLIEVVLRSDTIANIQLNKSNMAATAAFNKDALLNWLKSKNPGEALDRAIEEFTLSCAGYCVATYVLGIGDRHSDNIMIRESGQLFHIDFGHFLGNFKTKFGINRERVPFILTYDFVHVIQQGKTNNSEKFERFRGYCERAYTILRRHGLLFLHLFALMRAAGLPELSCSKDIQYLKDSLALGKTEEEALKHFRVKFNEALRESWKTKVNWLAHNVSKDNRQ
PI3Kδ (p110δ/p85α) Recombinant Human Protein, sequence (P27986 whole entry partner): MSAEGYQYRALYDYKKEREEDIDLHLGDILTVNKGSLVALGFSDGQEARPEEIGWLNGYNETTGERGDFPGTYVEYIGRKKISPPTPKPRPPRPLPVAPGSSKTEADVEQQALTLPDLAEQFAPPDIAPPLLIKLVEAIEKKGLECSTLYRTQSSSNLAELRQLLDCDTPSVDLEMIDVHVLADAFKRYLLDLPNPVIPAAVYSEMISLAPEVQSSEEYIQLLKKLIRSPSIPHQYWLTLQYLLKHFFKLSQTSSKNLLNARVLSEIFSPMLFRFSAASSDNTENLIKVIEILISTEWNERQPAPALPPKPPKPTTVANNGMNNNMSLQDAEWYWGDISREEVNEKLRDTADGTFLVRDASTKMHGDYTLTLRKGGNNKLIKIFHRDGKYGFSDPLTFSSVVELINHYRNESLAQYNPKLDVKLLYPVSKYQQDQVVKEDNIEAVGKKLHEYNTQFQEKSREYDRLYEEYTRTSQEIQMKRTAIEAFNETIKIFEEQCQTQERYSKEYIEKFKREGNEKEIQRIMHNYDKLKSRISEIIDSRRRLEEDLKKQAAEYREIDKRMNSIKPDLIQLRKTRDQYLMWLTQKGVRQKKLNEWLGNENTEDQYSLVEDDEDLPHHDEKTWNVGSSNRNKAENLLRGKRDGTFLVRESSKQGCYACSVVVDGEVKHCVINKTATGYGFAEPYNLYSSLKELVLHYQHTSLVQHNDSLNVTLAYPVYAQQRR

Compound | pIC50 [1] | pIC50 [2] | pIC50 [3]
O=C(O)C(F)(F)F.[2H]C([2H])([2H])c1ccc(S(=O)(=O)NC23CNC(C2)C3)cc1-c1cnc(N)c(-c2cnco2)n1 [Example 56, 3-(5-Amino-6-(oxazol-5-yl)pyrazin-2-yl)-N-(2-azabicyclo[2.1.1]hexan-4-yl)-4-(methyl-d3)benzenesulfonamide trifluoroacetate salt] | ≥ 7.00 | ≥ 6.00 | ≥ 6.30
Cc1ccc(S(=O)(=O)NC23CNC(C2)C3)cc1-c1cnc(N)c(-c2ncn(C)n2)n1 [Example 57, 3-(5-Amino-6-(1-methyl-1H-1,2,4-triazol-3-yl)pyrazin-2-yl)-N-(2-azabicyclo[2.1.1]hexan-4-yl)-4-methylbenzenesulfonamide trifluoroacetate salt] | ≥ 7.00 | ≥ 6.30 | ≥ 7.00
Cc1ccc(S(=O)(=O)NC23CNC(C2)C3)cc1-c1cnc(N)c(-n2cccn2)n1 [Example 58, 3-(5-Amino-6-(1H-pyrazol-1-yl)pyrazin-2-yl)-N-(2-azabicyclo[2.1.1]hexan-4-yl)-4-methylbenzenesulfonamide trifluoroacetate salt] | ≥ 7.00 | ≥ 6.00 | ≥ 6.30
Cc1ccc(S(=O)(=O)NC23CNC(C2)C3)cc1-c1cnc(N)c(-n2ccnn2)n1 [Example 59, 3-(5-amino-6-(1H-1,2,3-triazol-1-yl)pyrazin-2-yl)-N-(2-azabicyclo[2.1.1]hexan-4-yl)-4-methylbenzenesulfonamide trifluoroacetate salt] | ≥ 7.00 | ≥ 6.00 | ≥ 6.30
[2H]C([2H])([2H])c1ccc(S(=O)(=O)NC23COC(CO)(C2)C3)cc1-c1cnc(N)c(-c2cnc(C3CC3)s2)n1 [Example 61, 3-(5-Amino-6-(2-cyclopropylthiazol-5-yl)pyrazin-2-yl)-N-(1-(hydroxymethyl)-2-oxabicyclo[2.1.1]hexan-4-yl)-4-(methyl-d3)benzenesulfonamide Trifluoroacetate Salt] | ≥ 7.00 | ≥ 7.00 | ≥ 7.00
Cc1ccc(S(=O)(=O)NC23CCC(C#N)(C2)C3)cc1-c1cnc(N)c(-n2cccn2)n1 [Example 62, 3-(5-Amino-6-(1H-pyrazol-1-yl)pyrazin-2-yl)-N-(4-cyanobicyclo[2.1.1]hexan-1-yl)-4-methylbenzenesulfonamide Trifluoroacetate Salt] | ≥ 7.00 | ≥ 7.00 | ≥ 7.00
[2H]C([2H])([2H])c1ccc(S(=O)(=O)NC23CCC(C#N)(C2)C3)cc1-c1cnc(N)c(-c2ccn(C)n2)n1 [Example 63, 3-(5-Amino-6-(1-methyl-1H-pyrazol-3-yl)pyrazin-2-yl)-N-(4-cyanobicyclo[2.1.1]hexan-1-yl)-4-(methyl-d3)benzenesulfonamide Trifluoroacetate Salt] | ≥ 7.00 | ≥ 7.00 | ≥ 7.00
[2H]C([2H])([2H])c1ccc(S(=O)(=O)NC23CCC(C#N)(C2)C3)cc1-c1cnc(N)c(-c2cnc(C)s2)n1 [Example 65, 3-(5-Amino-6-(2-methylthiazol-5-yl)pyrazin-2-yl)-N-(4-cyanobicyclo[2.1.1]hexan-1-yl)-4-(methyl-d3)benzenesulfonamide trifluoroacetate salt] | ≥ 7.00 | ≥ 7.00 | ≥ 7.00
[2H]C([2H])([2H])c1ccc(S(=O)(=O)NC23CCC(C#N)(C2)C3)cc1-c1cnc(N)c(-c2cnc(C)o2)n1 [Example 66, 3-(5-Amino-6-(2-methyloxazol-5-yl)pyrazin-2-yl)-N-(4-cyanobicyclo[2.1.1]hexan-1-yl)-4-(methyl-d3)benzenesulfonamide trifluoroacetate salt] | ≥ 7.00 | ≥ 7.00 | ≥ 7.00
[2H]C([2H])([2H])c1ccc(S(=O)(=O)NC23CCC(C#N)(C2)C3)cc1-c1cnc(N)c(-c2cnc(N(C)C)nc2)n1 [Example 67, 3-(5-Amino-6-(2-(dimethylamino)pyrimidin-5-yl)pyrazin-2-yl)-N-(4-cyanobicyclo[2.1.1]hexan-1-yl)-4-(methyl-d3)benzenesulfonamide trifluoroacetate salt] | ≥ 7.00 | ≥ 7.00 | ≥ 6.30
[2H]C([2H])([2H])c1ccc(S(=O)(=O)NC23CCC(C#N)(C2)C3)cc1-c1cnc(N)c(-c2cnco2)n1 [Example 69, 3-(5-Amino-6-(oxazol-5-yl)pyrazin-2-yl)-N-(4-cyanobicyclo[2.1.1]hexan-1-yl)-4-(methyl-d3)benzenesulfonamide trifluoroacetate salt] | ≥ 7.00 | ≥ 7.00 | ≥ 7.00
[2H]C([2H])([2H])c1ccc(S(=O)(=O)NC23CCC(C#N)(C2)C3)cc1-c1cnc(N)c(-c2ncccn2)n1 [Example 70, 3-(5-Amino-6-(pyrimidin-2-yl)pyrazin-2-yl)-N-(4-cyanobicyclo[2.1.1]hexan-1-yl)-4-(methyl-d3)benzenesulfonamide trifluoroacetate salt] | ≥ 7.00 | ≤ 6.00 | > 5.70
[2H]C([2H])([2H])c1ccc(S(=O)(=O)NC23CCC(C#N)(C2)C3)cc1-c1cnc(N)c(-c2ncco2)n1 [Example 71, 3-(5-Amino-6-(oxazol-2-yl)pyrazin-2-yl)-N-(4-cyanobicyclo[2.1.1]hexan-1-yl)-4-(methyl-d3)benzenesulfonamide trifluoroacetate salt] | ≥ 7.00 | ≥ 6.30 | ≥ 6.30
[2H]C([2H])([2H])c1ccc(S(=O)(=O)NC23CCC(C#N)(C2)C3)cc1-c1cnc(N)c(-c2ccncn2)n1 [Example 72, 3-(5-Amino-6-(pyrimidin-4-yl)pyrazin-2-yl)-N-(4-cyanobicyclo[2.1.1]hexan-1-yl)-4-(methyl-d3)benzenesulfonamide trifluoroacetate salt] | ≥ 7.00 | ≥ 7.00 | ≥ 7.00
[2H]C([2H])([2H])c1ccc(S(=O)(=O)NC23CC(C#N)(C2)C3)cc1-c1cnc(N)c(-c2cnco2)n1 [Example 73, 3-(5-Amino-6-(oxazol-5-yl)pyrazin-2-yl)-N-(3-cyanobicyclo[1.1.1]pentan-1-yl)-4-(methyl-d3)benzenesulfonamide trifluoroacetate salt] | ≥ 7.00 | ≥ 7.00 | ≥ 7.00
[2H]C([2H])([2H])c1ccc(S(=O)(=O)NC23CCC(O)(C2)C3)cc1-c1cnc(N)c(-c2cnco2)n1 [Example 74, 3-(5-Amino-6-(oxazol-5-yl)pyrazin-2-yl)-N-(4-hydroxybicyclo[2.1.1]hexan-1-yl)-4-(methyl-d3)benzenesulfonamide trifluoroacetate salt] | ≥ 7.00 | ≥ 7.00 | ≥ 6.30
[2H]C([2H])([2H])c1ccc(S(=O)(=O)NC23CC(CO)(C2)C3)cc1-c1cnc(N)c(-c2cnco2)n1 [Example 75, 3-(5-Amino-6-(oxazol-5-yl)pyrazin-2-yl)-N-(3-(hydroxymethyl)bicyclo[1.1.1]pentan-1-yl)-4-(methyl-d3)benzenesulfonamide trifluoroacetate salt] | ≥ 7.00 | ≥ 7.00 | ≥ 6.30
[2H]C([2H])([2H])c1ccc(S(=O)(=O)NC23CC(C#N)(C2)C3)cc1-c1cnc(N)c(-c2ccnc(SC)n2)n1 [Example 76, 3-(5-Amino-6-(2-(methylthio)pyrimidin-4-yl)pyrazin-2-yl)-N-(3-cyanobicyclo[1.1.1]pentan-1-yl)-4-(methyl-d3)benzenesulfonamide] | ≥ 7.00 | ≥ 7.00 | ≥ 7.00
[2H]C([2H])([2H])c1ccc(S(=O)(=O)NC23CCC(O)(C2)C3)cc1-c1cnc(N)c(-c2ccnc(SC)n2)n1 [Example 77, 3-(5-Amino-6-(2-(methylthio)pyrimidin-4-yl)pyrazin-2-yl)-N-(4-hydroxybicyclo[2.1.1]hexan-1-yl)-4-(methyl-d3)benzenesulfonamide] | ≥ 7.00 | ≥ 7.00 | ≥ 7.00
[2H]C([2H])([2H])c1ccc(S(=O)(=O)NC23CC(CO)(C2)C3)cc1-c1cnc(N)c(-c2ccnc(SC)n2)n1 [Example 78, 3-(5-Amino-6-(2-(methylthio)pyrimidin-4-yl)pyrazin-2-yl)-N-(3-(hydroxymethyl)bicyclo[1.1.1]pentan-1-yl)-4-(methyl-d3)benzenesulfonamide] | ≥ 7.00 | ≥ 7.00 | ≥ 7.00
[2H]C([2H])([2H])c1ccc(S(=O)(=O)NC23CC(C#N)(C2)C3)cc1-c1cnc(N)c(-c2ccncn2)n1 [Example 79, 3-(5-Amino-6-(pyrimidin-4-yl)pyrazin-2-yl)-N-(3-cyanobicyclo[1.1.1]pentan-1-yl)-4-(methyl-d3)benzenesulfonamide Trifluoroacetate Salt] | ≥ 7.00 | ≥ 7.00 | ≥ 7.00
[2H]C([2H])([2H])c1ccc(S(=O)(=O)NC23CCC(O)(C2)C3)cc1-c1cnc(N)c(-c2ccncn2)n1 [Example 80, 3-(5-Amino-6-(pyrimidin-4-yl)pyrazin-2-yl)-N-(4-hydroxybicyclo[2.1.1]hexan-1-yl)-4-(methyl-d3)benzenesulfonamide trifluoroacetate salt] | ≥ 7.00 | ≥ 7.00 | ≥ 7.00
